Earlier results, collected in US9498539B2, “Affinity-based controlled release system” (priority 2012, dated 2016).
Where two headings read alike, the source gives them in different places.

Assays:
Streptavidin = Streptavidin (Streptomyces avidinii, UniProt P22629); details: streptavidin binds 2-iminobiotin, medium affinity; cited from earlier work
[1] = 24 h; cited from earlier work
[2] = biological target: Src homology 3 domain (SH3) (Saccharomyces cerevisiae, UniProt P15891); details: read-out: Kd (affinity to SH3), SH3-binding peptide to SH3, not part of the composition, cited from earlier work
Sequence of Src homology 3 domain (SH3) (P15891 532-592 limits assumed): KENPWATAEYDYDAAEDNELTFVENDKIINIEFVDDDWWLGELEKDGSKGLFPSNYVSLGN

Sequence of Streptavidin (P22629 25-183): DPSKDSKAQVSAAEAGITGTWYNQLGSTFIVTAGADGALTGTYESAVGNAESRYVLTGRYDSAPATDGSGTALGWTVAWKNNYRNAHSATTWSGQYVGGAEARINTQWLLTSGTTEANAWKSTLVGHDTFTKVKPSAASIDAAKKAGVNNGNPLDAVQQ

Question: Which Kd (Streptavidin) does the source give for `N=C1N[C@H]2[C@H](CS[C@H]2CCCCC(=O)O)N1` [2-iminobiotin] here?
Answer: 12.5 µM

Question: For “FGF-2: basic fibroblast growth factor, literature data of Nakamura et al.”, which remaining bioactivity [1] is on record?
Answer: < 10%

Question: Which Kd [2] does the source give for KPPVVKKPHYLS [compound 4] here?
Answer: 27 µM

Question: And the Kd ([2]; listed as weak binder)?
Answer: 10 µM
